Laboratory results published in PMC11992225, “Antibacterial compounds against non-growing and intracellular bacteria” (npj Antimicrobials and Resistance, 2025).

Key:
[1] = tested on: non-growing S. aureus DSM2569; test: Dose-dependent killing analysis (CFU spot-plating) of stationary-phase S. aureus;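 for average Δlog10(CFU/ml) (killing): drug concentration in µM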; format: cell-based, Staphylococcus aureus; conditions: for average Δlog10(CFU/ml) (killing) / Log10(CFU/ml), Replicate #1 / Log10(CFU/ml), Replicate #2 / Log10(CFU/ml), Replicate #3 / Δlog10(CFU/ml): S. aureus; for average Δlog10(CFU/ml) (killing): vs 9,097 before treatment; for Δlog10(CFU/ml): average killing vs before treatment (9,097)
Experimental: To determine the spectrum of activity of the compounds that were effective against non-growing UPEC, we further assessed their efficacy against the well-characterized Gram-negative and Gram-positive reference strains P. aeruginosa DSM1117 and S. aureus DSM2569, respectively. The cultures were grown and treated for 24 h in 1:4 CA-MHB (pH 7.4). […].
For survival analysis, bacteria were cultivated as described for the dose–response dilution-regrowth assay. Assays with UPEC were conducted at the CBCS screening facility using 96-well plates with a 200 μl sample volume, and compounds were dispensed using the Echo® (Labcyte) system. P. aeruginosa and S. aureus samples were treated according to the protocol used for the dilution-regrowth experiments. Treated samples were serially diluted 10-fold in PBS, and 10 μl drops were spot-plated onto rectangular LB agar plates using either a Beckman NXP robot (for UPEC) or an Integra VIAFLO96 electronic pipette (for P. aeruginosa and S. aureus). The LB agar plates were incubated overnight at 37 °C and scanned. Colonies were counted at the spots of the lowest dilution where individual colonies could be accurately distinguished. Each colony was manually marked on a separate image layer using the GNU Image Manipulation Program, and counted using NIST’s Integrated Colony Enumerator (NICE 1.4) software. The experiments were performed in three biological replicates.

[2] = tested on: intracellular S. flexneri 5a M90T in TC7 cells; test: microbe, parasite or virus in culture; format: cell-based, Shigella flexneri; conditions: for IC50: Shigella flexneri, TC7, 14 h
[3] = tested on: non-growing UPEC CFT073; test: Dose-dependent killing analysis (CFU spot-plating) of stationary-phase UPEC; format: cell-based, Escherichia coli
In short: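 Killing assessed by CFU counts: overnight 37 °C LB agar spot plates (10 μl drops of 10-fold PBS dilutions) scored at the lowest dilution with distinct colonies. Samples were compound-treated non-growing UPEC CFT073, 200 μl per well. Performed as three biological replicates.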

[4] = TC7 cells infected with GFP-expressing S. flexneri, 14 h treatment
[5] = E. coli in 1:4 CA-MHB (pH 7.4), 0.25 μM
[6] = E. coli in 1:4 CA-MHB (pH 7.4), 0.5 μM
[7] = E. coli in 1:4 CA-MHB (pH 7.4), 1 μM
[8] = E. coli in 1:4 CA-MHB (pH 7.4), 2.5 μM
[9] = E. coli in 1:4 CA-MHB (pH 7.4), 5 μM
[10] = E. coli in 1:4 CA-MHB (pH 7.4), 10 μM
[11] = E. coli in LPM (pH 5.5), 0.25 μM
[12] = E. coli in LPM (pH 5.5), 0.5 μM
[13] = E. coli in LPM (pH 5.5), 2.5 μM

## CN1CCN(c2cc3c(cc2F)c(=O)c(C(=O)O)cn3-c2ccc(F)cc2)CC1 [Difloxacin]
[1]; drug conc 0.1
  average Δlog10(CFU/ml) (killing): 0.032 log10(CFU/ml)
[1]; drug conc 0.5
  average Δlog10(CFU/ml) (killing): 0.171 log10(CFU/ml)
[1]; drug conc 2.5
  average Δlog10(CFU/ml) (killing): 0.107 log10(CFU/ml)
[1]; drug conc 10
  average Δlog10(CFU/ml) (killing): 0.435 log10(CFU/ml)
[2]
  IC50: 0.183 µM
[2]; [4]
  Fluorescence intensity (RFU), Mean, 0.25 x MIC: 8915.25 RFU
  Fluorescence intensity (RFU), Mean, 0.5 x MIC: 8126.42 RFU
  Fluorescence intensity (RFU), Mean, 2 x MIC: 3233.81 RFU
  Fluorescence intensity (RFU), Mean, 4 x MIC: 2824.97 RFU
  Fluorescence intensity (RFU), Mean, 8 x MIC: 2319.67 RFU
  Fluorescence intensity (RFU), Mean, MIC: 3866.17 RFU
[2]; TC7 cells infected with GFP-expressing S. flexneri, 14 h treatment, 16 x MIC
  Fluorescence intensity (RFU), Mean, 16 x MIC: 1827.36 RFU
[2]; TC7 cells infected with GFP-expressing S. flexneri, 14 h treatment, 32 x MIC
  Fluorescence intensity (RFU), Mean, 32 x MIC: 1634.92 RFU

## Cn1c(COP(=O)(NCCBr)NCCBr)cnc1[N+](=O)[O-] [Evofosfamide]
[3]; [5]
  Log10(CFU/ml), Replicate #1: 9.398 Log10(CFU/ml)
  Log10(CFU/ml), Replicate #2: 8.477 Log10(CFU/ml)
  Log10(CFU/ml), Replicate #3: 8.954 Log10(CFU/ml)
[3]; E. coli in 1:4 CA-MHB (pH 7.4), 0.25 μM, average killing vs before treatment (8.977)
  Δlog10(CFU/ml): 0.034 log10(CFU/ml)
[3]; [6]
  Log10(CFU/ml), Replicate #1: 9.279 Log10(CFU/ml)
  Log10(CFU/ml), Replicate #2: 9.114 Log10(CFU/ml)
  Log10(CFU/ml), Replicate #3: 8.301 Log10(CFU/ml)
[3]; E. coli in 1:4 CA-MHB (pH 7.4), 0.5 μM, average killing vs before treatment (8.977)
  Δlog10(CFU/ml): 0.079 log10(CFU/ml)
[3]; [7]
  Log10(CFU/ml), Replicate #1: 9.477 Log10(CFU/ml)
  Log10(CFU/ml), Replicate #2: 8.845 Log10(CFU/ml)
  Log10(CFU/ml), Replicate #3: 8.491 Log10(CFU/ml)
[3]; E. coli in 1:4 CA-MHB (pH 7.4), 1 μM, average killing vs before treatment (8.977)
  Δlog10(CFU/ml): 0.039 log10(CFU/ml)
[3]; [8]
  Log10(CFU/ml), Replicate #1: 9.415 Log10(CFU/ml)
  Log10(CFU/ml), Replicate #2: 8.954 Log10(CFU/ml)
  Log10(CFU/ml), Replicate #3: 8.491 Log10(CFU/ml)
[3]; E. coli in 1:4 CA-MHB (pH 7.4), 2.5 μM, average killing vs before treatment (8.977)
  Δlog10(CFU/ml): 0.024 log10(CFU/ml)
[3]; [9]
  Log10(CFU/ml), Replicate #1: 8.778 Log10(CFU/ml)
  Log10(CFU/ml), Replicate #2: 7.845 Log10(CFU/ml)
  Log10(CFU/ml), Replicate #3: 8.301 Log10(CFU/ml)
[3]; E. coli in 1:4 CA-MHB (pH 7.4), 5 μM, average killing vs before treatment (8.977)
  Δlog10(CFU/ml): 0.669 log10(CFU/ml)
[3]; [10]
  Log10(CFU/ml), Replicate #1: 9.000 Log10(CFU/ml)
  Log10(CFU/ml), Replicate #2: 8.000 Log10(CFU/ml)
  Log10(CFU/ml), Replicate #3: 7.778 Log10(CFU/ml)
[3]; E. coli in 1:4 CA-MHB (pH 7.4), 10 μM, average killing vs before treatment (8.977)
  Δlog10(CFU/ml): 0.718 log10(CFU/ml)
[3]; [11]
  Log10(CFU/ml), Replicate #1: 6.477 Log10(CFU/ml)
  Log10(CFU/ml), Replicate #2: 6.568 Log10(CFU/ml)
  Log10(CFU/ml), Replicate #3: 8.176 Log10(CFU/ml)
[3]; E. coli in LPM (pH 5.5), 0.25 μM, average killing vs before treatment (7.350)
  Δlog10(CFU/ml): 0.277 log10(CFU/ml)
[3]; [12]
  Log10(CFU/ml), Replicate #1: 6.602 Log10(CFU/ml)
  Log10(CFU/ml), Replicate #2: 6.903 Log10(CFU/ml)
  Log10(CFU/ml), Replicate #3: 8.230 Log10(CFU/ml)
[3]; E. coli in LPM (pH 5.5), 0.5 μM, average killing vs before treatment (7.350)
  Δlog10(CFU/ml): 0.105 log10(CFU/ml)
[3]; E. coli in LPM (pH 5.5), 1 μM
  Log10(CFU/ml), Replicate #1: 6.279 Log10(CFU/ml)
  Log10(CFU/ml), Replicate #2: 6.845 Log10(CFU/ml)
  Log10(CFU/ml), Replicate #3: 8.000 Log10(CFU/ml)
[3]; E. coli in LPM (pH 5.5), 1 μM, average killing vs before treatment (7.350)
  Δlog10(CFU/ml): 0.309 log10(CFU/ml)
[3]; [13]
  Log10(CFU/ml), Replicate #1: 6.301 Log10(CFU/ml)
  Log10(CFU/ml), Replicate #2: 6.079 Log10(CFU/ml)
  Log10(CFU/ml), Replicate #3: 7.954 Log10(CFU/ml)
[3]; E. coli in LPM (pH 5.5), 2.5 μM, average killing vs before treatment (7.350)
  Δlog10(CFU/ml): 0.572 log10(CFU/ml)
[3]; E. coli in LPM (pH 5.5), 5 μM
  Log10(CFU/ml), Replicate #1: 5.699 Log10(CFU/ml)
  Log10(CFU/ml), Replicate #2: 5.447 Log10(CFU/ml)
  Log10(CFU/ml), Replicate #3: 7.602 Log10(CFU/ml)
[3]; E. coli in LPM (pH 5.5), 5 μM, average killing vs before treatment (7.350)
  Δlog10(CFU/ml): 1.101 log10(CFU/ml)
[3]; E. coli in LPM (pH 5.5), 10 μM
  Log10(CFU/ml), Replicate #1: 5.176 Log10(CFU/ml)
  Log10(CFU/ml), Replicate #2: 4.954 Log10(CFU/ml)
  Log10(CFU/ml), Replicate #3: 7.146 Log10(CFU/ml)
[3]; E. coli in LPM (pH 5.5), 10 μM, average killing vs before treatment (7.350)
  Δlog10(CFU/ml): 1.592 log10(CFU/ml)
[1]; 0.1 μM
  Log10(CFU/ml), Replicate #1: 9.580 Log10(CFU/ml)
  Log10(CFU/ml), Replicate #2: 8.996 Log10(CFU/ml)
  Log10(CFU/ml), Replicate #3: 9.049 Log10(CFU/ml)
  Δlog10(CFU/ml): -0.111 log10(CFU/ml)
[1]; 0.5 μM
  Log10(CFU/ml), Replicate #1: 9.362 Log10(CFU/ml)
  Log10(CFU/ml), Replicate #2: 9.017 Log10(CFU/ml)
  Log10(CFU/ml), Replicate #3: 8.881 Log10(CFU/ml)
  Δlog10(CFU/ml): 0.011 log10(CFU/ml)
[1]; 2.5 μM
  Log10(CFU/ml), Replicate #1: 8.863 Log10(CFU/ml)
  Log10(CFU/ml), Replicate #2: 8.724 Log10(CFU/ml)
  Log10(CFU/ml), Replicate #3: 8.663 Log10(CFU/ml)
  Δlog10(CFU/ml): 0.347 log10(CFU/ml)
[1]; 10 μM
  Log10(CFU/ml), Replicate #1: 5.954 Log10(CFU/ml)
  Log10(CFU/ml), Replicate #2: 5.845 Log10(CFU/ml)
  Log10(CFU/ml), Replicate #3: 5.748 Log10(CFU/ml)
  Δlog10(CFU/ml): 3.248 log10(CFU/ml)
[1]; at 10 µM, 24 h treatment
  reduction of non-growing S. aureus: below the limit of detection
[2]; S. flexneri MIC in TSB versus intracellular IC50
  MIC:IC50 ratio: below 0.5
[2]
  IC50: 102 µM
[2]; [4]
  Fluorescence intensity (RFU), Mean, 0.25 x MIC: 9046.58 RFU
  Fluorescence intensity (RFU), Mean, 0.5 x MIC: 8823.33 RFU
  Fluorescence intensity (RFU), Mean, 2 x MIC: 7151.78 RFU
  Fluorescence intensity (RFU), Mean, 4 x MIC: 5305.28 RFU
  Fluorescence intensity (RFU), Mean, 8 x MIC: 3462.11 RFU
  Fluorescence intensity (RFU), Mean, MIC: 8378.86 RFU
